Measured values reported in the NIST ThermoML archive (doi:10.1021/je2000952).
Numbers after ± are expanded uncertainties.

Conditions: Liquid, Closed cell (Static) method

FCC(F)(F)F [1,1,1,2-tetrafluoroethane]
Conditions | vapor or sublimation pressure [kPa]
283.13 K | 414.4 ± 1.2
293.14 K | 571.1 ± 1.4
303.12 K | 769.2 ± 1.8
313.11 K | 1014.9 ± 2.3
323.17 K | 1318.5 ± 2.9
333.16 K | 1681.1 ± 3.6
343.16 K | 2117.3 ± 4.3

C=C(F)C(F)(F)F [2,3,3,3-tetrafluoro-1-propene]
Conditions | vapor or sublimation pressure [kPa]
245.65 K | 110.3 ± 0.4
248.15 K | 122.6 ± 0.4
250.65 K | 136.1 ± 0.4
253.15 K | 150.7 ± 0.5
255.65 K | 166.4 ± 0.5
258.15 K | 183.6 ± 0.6
260.65 K | 201.9 ± 0.6
263.15 K | 221.6 ± 0.6
265.65 K | 242.5 ± 0.7
268.15 K | 265.2 ± 0.7
270.65 K | 289.7 ± 0.8
273.15 K | 315.7 ± 0.8
275.65 K | 343.3 ± 0.9
278.15 K | 372.8 ± 1
280.65 K | 404.1 ± 1
283.15 K | 437.4 ± 1.1
285.65 K | 472.9 ± 1.2
288.15 K | 510.3 ± 1.2
290.65 K | 549.9 ± 1.3
293.16 K | 591.8 ± 1.4
295.65 K | 636 ± 1.5
298.16 K | 682.7 ± 1.6
300.66 K | 731.9 ± 1.7
303.16 K | 783.6 ± 1.8
305.66 K | 838.1 ± 1.9
308.16 K | 895.3 ± 2
310.66 K | 955.5 ± 2.2
313.16 K | 1018.5 ± 2.3
315.66 K | 1084 ± 2.4
318.16 K | 1153.4 ± 2.5
320.66 K | 1225.8 ± 2.7
323.16 K | 1301.6 ± 2.8
325.65 K | 1381 ± 3
328.15 K | 1463.9 ± 3.1
330.66 K | 1550.6 ± 3.3
333.16 K | 1641.1 ± 3.5
335.66 K | 1735.7 ± 3.7
338.16 K | 1833.9 ± 3.8
340.66 K | 1936.6 ± 4
343.15 K | 2043.7 ± 4.2
